Measured values reported in patent US9181273B2, “Morpholine-spirocyclic piperidine amides as modulators of ion channels” (Vertex Pharmaceuticals Incorporated, priority 2011, dated 2015).
pIC50: −log10 of the molar value.

target: human NaV subtype, like NaV 1.7 (Homo sapiens, UniProt Q15858); assay: E-VIPR optical membrane potential assay with electrical stimulation; type: cell-based; conditions: not given
Excerpt: Sodium channels are voltage-dependent proteins that can be activated by inducing membrane voltage changes by applying electric fields. […] The instrument comprises a microtiter plate handler, an optical system for exciting the coumarin dye while simultaneously recording the coumarin and oxonol emissions, a waveform generator, a current- or voltage-controlled amplifier, and a device for inserting electrodes in well. Under integrated computer control, this instrument passes user-programmed electrical stimulus protocols to cells within the wells of the microtiter plate.
24 hours before the assay on E-VIPR, HEK cells expressing human NaV subtype, like NaV 1.7, are seeded in 384-well poly-lysine coated plates at 15,000-20,000 cells per well. Other subtypes are performed in an analogous mode in a cell line expressing the NaV of interest. […] Cells are grown in vented cap flasks, in 90% humidity and 10% CO2, to 100% confluence. They are usually split by trypsinization 1:10 or 1:20, depending on scheduling needs, and grown for 2-3 days before the next split.
To make the solution Add volume of 10% Pluronic F127 stock equal to volumes of CC2-DMPE+DiSBAC6(3). The order of preparation is first mix Pluronic and CC2-DMPE, then add DiSBAC6(3) while vortexing, then add Bath1+β-Cyclodextrin.
1) Pre-spot compounds (in neat DMSO) into compound plates. […] Final compound plate volume will be 80 μL (80-fold intermediate dilution from 1 μL DMSO spot; 160-fold final dilution after transfer to cell plate).
2) Prepare Hexyl Dye Solution.
3) Prepare cell plates. On the day of the assay, medium is aspirated and cells are washed three times with 100 μL of Bath1 Solution, maintaining 25 μL residual volume in each well.
4) Dispense 25 μL per well of Hexyl Dye Solution into cell plates. Incubate for 20-35 minutes at room temp or ambient conditions.
5) Dispense 80 μL per well of Bath1 into compound plates. Acid Yellow-17 (1 mM) is added and Potassium Chloride can be altered from 4.5 to 20 mM depending on the NaV subtype and assay sensitivity.
6) Wash cell plates three times with 100 μL per well of Bath1, leaving 25 μL of residual volume. Then transfer 25 uL per well from Compound Plates to Cell Plates. Incubate for 20-35 minutes at room temp/ambient condition
7) Read Plate on E-VIPR. Use the current-controlled amplifier to deliver stimulation wave pulses for typically 9 seconds and a scan rate of 400 Hz. A pre-stimulus recording is performed for 0.5 seconds to obtain the un-stimulated intensities baseline. The stimulatory waveform is applied for 9 seconds followed by 0.5 seconds of post-stimulation recording to examine the relaxation to the resting state. The stimulatory waveform of the electrical stimulation is specific for each cell type and can vary the magnitude, duration and frequency of the applied current to provide an optimal assay signal.
Data are analyzed and reported as normalized ratios of background-subtracted emission intensities measured in the 460 nm and 580 nm channels. Background intensities are then subtracted from each assay channel. Background intensities are obtained by measuring the emission intensities during the same time periods from identically treated assay wells in which there are no cells. The response as a function of time is then reported as the ratios obtained using the following formula: […]
The data is further reduced by calculating the initial (Ri) and final (Rf) ratios. These are the average ratio values during part or all of the pre-stimulation period, and during sample points during the stimulation period. The response to the stimulus R=Rf/Ri is then calculated and reported as a function of time.
Control responses are obtained by performing assays in the presence of a compound with the desired properties (positive control), such as tetracaine, and in the absence of pharmacological agents (negative control). Responses to the negative (N) and positive (P) controls are calculated as above. The compound antagonist activity A is defined as: […]

Sequence of human NaV subtype, like NaV 1.7 (Q15858 whole entry): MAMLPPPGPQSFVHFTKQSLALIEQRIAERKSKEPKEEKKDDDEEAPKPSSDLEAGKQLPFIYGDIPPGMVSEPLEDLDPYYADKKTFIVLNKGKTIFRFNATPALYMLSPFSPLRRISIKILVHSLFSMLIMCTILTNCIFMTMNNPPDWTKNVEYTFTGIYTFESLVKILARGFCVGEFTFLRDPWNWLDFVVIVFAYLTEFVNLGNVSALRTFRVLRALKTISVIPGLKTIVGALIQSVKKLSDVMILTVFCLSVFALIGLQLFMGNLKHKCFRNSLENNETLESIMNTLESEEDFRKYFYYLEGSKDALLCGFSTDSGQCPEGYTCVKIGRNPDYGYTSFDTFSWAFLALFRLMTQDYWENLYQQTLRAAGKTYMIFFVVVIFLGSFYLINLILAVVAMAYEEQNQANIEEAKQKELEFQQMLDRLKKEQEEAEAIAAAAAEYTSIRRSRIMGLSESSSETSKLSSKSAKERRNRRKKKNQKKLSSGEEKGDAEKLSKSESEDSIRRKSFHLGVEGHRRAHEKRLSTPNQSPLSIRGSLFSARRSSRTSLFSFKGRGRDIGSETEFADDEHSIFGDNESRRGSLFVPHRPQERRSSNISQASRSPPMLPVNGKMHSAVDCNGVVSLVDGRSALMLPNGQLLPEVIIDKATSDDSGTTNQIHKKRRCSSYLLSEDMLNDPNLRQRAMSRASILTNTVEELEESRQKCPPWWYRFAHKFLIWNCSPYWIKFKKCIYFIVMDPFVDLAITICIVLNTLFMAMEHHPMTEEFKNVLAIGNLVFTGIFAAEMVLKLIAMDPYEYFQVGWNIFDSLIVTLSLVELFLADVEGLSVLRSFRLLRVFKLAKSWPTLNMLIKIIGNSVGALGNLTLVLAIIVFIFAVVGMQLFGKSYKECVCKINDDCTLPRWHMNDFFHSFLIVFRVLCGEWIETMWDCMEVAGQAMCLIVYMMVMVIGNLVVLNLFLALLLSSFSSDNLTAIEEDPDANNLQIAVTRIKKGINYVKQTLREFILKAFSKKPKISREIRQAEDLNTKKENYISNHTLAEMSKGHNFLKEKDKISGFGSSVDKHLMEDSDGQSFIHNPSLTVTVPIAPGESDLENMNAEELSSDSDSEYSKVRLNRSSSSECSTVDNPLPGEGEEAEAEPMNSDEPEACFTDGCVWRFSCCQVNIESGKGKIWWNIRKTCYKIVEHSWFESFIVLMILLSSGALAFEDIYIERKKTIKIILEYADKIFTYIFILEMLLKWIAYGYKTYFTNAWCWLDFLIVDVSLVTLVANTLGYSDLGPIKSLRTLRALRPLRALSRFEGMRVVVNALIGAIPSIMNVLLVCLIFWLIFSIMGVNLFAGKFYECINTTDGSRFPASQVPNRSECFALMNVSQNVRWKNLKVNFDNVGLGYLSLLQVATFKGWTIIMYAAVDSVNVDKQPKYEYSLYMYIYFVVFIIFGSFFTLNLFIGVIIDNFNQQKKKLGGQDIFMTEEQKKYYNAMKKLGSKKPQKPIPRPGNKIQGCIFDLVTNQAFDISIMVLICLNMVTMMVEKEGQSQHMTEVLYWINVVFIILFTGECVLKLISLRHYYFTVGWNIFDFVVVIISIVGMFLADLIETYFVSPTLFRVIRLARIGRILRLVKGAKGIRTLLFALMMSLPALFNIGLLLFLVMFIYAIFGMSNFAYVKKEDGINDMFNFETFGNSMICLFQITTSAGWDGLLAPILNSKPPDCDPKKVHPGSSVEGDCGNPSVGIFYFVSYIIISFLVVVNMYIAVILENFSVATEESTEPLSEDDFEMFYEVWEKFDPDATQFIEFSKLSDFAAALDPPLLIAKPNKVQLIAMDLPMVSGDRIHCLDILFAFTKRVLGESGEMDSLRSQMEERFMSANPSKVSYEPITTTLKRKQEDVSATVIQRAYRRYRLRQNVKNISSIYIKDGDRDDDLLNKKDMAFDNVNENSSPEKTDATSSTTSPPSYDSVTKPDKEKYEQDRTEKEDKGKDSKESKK

Row | Compound | pIC50
1 | Cc1cc(C(=O)N2CCC3(CC2)CN(CC(F)(F)F)CC(c2cc[nH]n2)O3)ccc1OC(C)C (stereo not shown) [Compound 211] | > 5.70

same assay, conditions: active against one or more sodium channels; assay and NaV subtype not specified for Table 3; read-out: IC50 Binned Activity Data

Row | Compound | pIC50
2 | Cc1cc(C(=O)N2CCC3(CC2)CN(CC(F)F)CC(c2nccn2C)O3)ccc1OC(C)C (stereo not shown) [Compound 35] | < 5.30
3 | CCC1COC2(CCN(C(=O)c3ccc(OC(C)C)c(C)c3)CC2)CN1CC (stereo not shown) [Compound 40] | < 5.30
4 | COCC1CN(C2CCC(C(C)C)CC2)CC2(CCN(C(=O)c3ccc(OC(C)C)c(C)c3)CC2)O1 (stereo not shown) [Compound 304] | > 5.70
5 | CCC1CN(c2ncccn2)CC2(CCN(C(=O)c3ccc(C(O)(CC)CC)c(C)c3)CC2)O1 (stereo not shown) [Compound 1] | 5.30 to 5.70
6 | CC(C)Oc1ccc(C(=O)N2CCC3(CC2)CN(CC(F)F)CC(c2ccccc2)O3)cc1F (stereo not shown) [Compound 77] | > 5.70
7 | CCN1CC(c2ccccc2)OC2(CCN(C(=O)c3ccc(OC(C)C)c(OC)c3)CC2)C1 (stereo not shown) [Compound 192] | > 5.70
8 | CC(C)Oc1ccc(C(=O)N2CCC3(CC2)CN(CC(F)F)CC(c2ccc(F)cc2)O3)cc1Cl (stereo not shown) [Compound 156] | > 5.70
9 | Cc1cc(C(=O)N2CCC3(CC2)CN(CC(F)(F)F)CC(Cn2cccn2)O3)ccc1OC(C)C (stereo not shown) [Compound 181] | < 5.30
10 | CCN1CC(c2ncc(C)s2)OC2(CCN(C(=O)c3ccc(OC(C)C)c(OC)c3)CC2)C1 (stereo not shown) [Compound 76] | 5.30 to 5.70
11 | Cc1cc(C(=O)N2CCC3(CC2)CN(C(=O)C(C)C)CC(c2ccccc2)O3)ccc1OC(C)C (stereo not shown) [Compound 289] | 5.30 to 5.70
12 | Cc1noc(C2CN(Cc3ccccc3)CC3(CCN(C(=O)c4ccc(OC(C)C)c(C)c4)CC3)O2)n1 (stereo not shown) [Compound 148] | 5.30 to 5.70
13 | Cc1cc(C(=O)N2CCC3(CC2)CN(Cc2ccccc2)CC(CCO)O3)ccc1OC(C)C (stereo not shown) [Compound 2] | < 5.30
14 | O=C(c1ccc(C2(O)COC2)cc1)N1CCC2(CC1)CN(CC(F)(F)F)CC(c1ccccc1)O2 (stereo not shown) [Compound 151] | < 5.30
15 | COCCOc1ccc(C(=O)N2CCC3(CC2)CN(CC(F)(F)F)CC(c2ccccc2)O3)cc1OC (stereo not shown) [Compound 143] | > 5.70
16 | Cc1cc(C(=O)N2CCC3(CC2)CN(c2ncccn2)CC(CO)O3)ccc1OC(C)C (stereo not shown) [Compound 92] | < 5.30
17 | COCC1CN(c2ncccn2)CC2(CCN(C(=O)c3ccc(S(=O)(=O)C4CC4)cc3)CC2)O1 (stereo not shown) [Compound 208] | < 5.30
18 | CC(C)(C)S(=O)(=O)c1ccc(C(=O)N2CCC3(CC2)CN(CC(F)(F)F)CC(c2ccccc2)O3)cc1 (stereo not shown) [Compound 12] | > 5.70
19 | CCC1CN(Cc2ccccc2)CC2(CCN(C(=O)c3ccc(OC(C)C)c(C)c3)CC2)O1 (stereo not shown) [Compound 142] | < 5.30
20 | CCC1CN(CC(=O)C(C)(C)C)CC2(CCN(C(=O)c3ccc(OC(C)C)c(C)c3)CC2)O1 (stereo not shown) [Compound 262] | > 5.70
21 | CCC1CN(c2ncccn2)CC2(CCN(C(=O)c3ccc(S(=O)(=O)C(C)C)c(C)c3)CC2)O1 (stereo not shown) [Compound 238] | 5.30 to 5.70
22 | CCC1CN(CC)CC2(CCN(C(=O)c3ccc(OC(C)C)c(C)c3)CC2)O1 (stereo not shown) [Compound 34] | < 5.30
23 | CC(C)Oc1ccc(C(=O)N2CCC3(CC2)CN(CC(F)(F)F)CC(c2cc[nH]n2)O3)cc1F (stereo not shown) [Compound 38] | 5.30 to 5.70
24 | Cc1cc(C(=O)N2CCC3(CC2)CN(CC(F)F)CC(c2ccccc2)O3)ccc1OC(C)C (stereo not shown) [Compound 153] | > 5.70
25 | CC(C)Oc1ccc(C(=O)N2CCC3(CC2)CN(CC(F)F)CC(c2ccccc2)O3)cc1Cl (stereo not shown) [Compound 86] | > 5.70
26 | Cc1cc(C(=O)N2CCC3(CC2)CN(CC(F)(F)F)CC(c2ccccc2)O3)ccc1C(C)(C)O (stereo not shown) [Compound 98] | > 5.70
27 | CC(C)(C)S(=O)(=O)c1ccc(C(=O)N2CCC3(CC2)CN(CC(F)F)CC(c2ccc(F)cc2)O3)cc1 (stereo not shown) [Compound 269] | 5.30 to 5.70
28 | COCC1CN(c2ncccn2)CC2(CCN(C(=O)c3ccc(OC(C)C)c(C)c3)CC2)O1 (stereo not shown) [Compound 120] | > 5.70

Row | Compound | pIC50
29 | Cc1cccnc1C1CN(CC(F)F)CC2(CCN(C(=O)c3ccc(OC(C)C)c(F)c3)CC2)O1 (stereo not shown) [Compound 261] | > 5.70
30 | CCc1cnc(C2CN(CC(F)F)CC3(CCN(C(=O)c4ccc(OC(C)C)c(C)c4)CC3)O2)o1 (stereo not shown) [Compound 214] | 5.30 to 5.70
31 | CC(C)(O)c1ccc(C(=O)N2CCC3(CC2)CN(CC(F)(F)F)CC(c2ccccc2)O3)cc1 (stereo not shown) [Compound 105] | > 5.70
32 | COC(=O)C(C)(C)c1ccc(C(=O)N2CCC3(CC2)CN(CC(F)(F)F)CC(c2ccccc2)O3)cc1OC (stereo not shown) [Compound 292] | 5.30 to 5.70
33 | CC(C)Oc1ccc(C(=O)N2CCC3(CC2)CN(CC(F)(F)F)CC(c2cc[nH]n2)O3)cc1Cl (stereo not shown) [Compound 110] | > 5.70
34 | Cc1cc(C(=O)N2CCC3(CC2)CN(c2ncccn2)CCO3)ccc1OC(C)C [Compound 6] | 5.30 to 5.70
35 | CC(C)(O)Cc1ccc(C(=O)N2CCC3(CC2)CN(CC(F)(F)F)CC(c2ccccc2)O3)cc1 (stereo not shown) [Compound 133] | > 5.70
36 | CC(C)Oc1ccc(C(=O)N2CCC3(CC2)CN(CC(F)F)CC(c2ccccc2F)O3)cc1F (stereo not shown) [Compound 45] | > 5.70
37 | CC#CCN1CC(CC)OC2(CCN(C(=O)c3ccc(OC)c(C(F)(F)F)c3)CC2)C1 (stereo not shown) [Compound 30] | < 5.30
38 | CCC1CN(c2ccccn2)CC2(CCN(C(=O)c3ccc(C4(O)CCCC4)cc3)CC2)O1 (stereo not shown) [Compound 288] | > 5.70
39 | O=C(c1cccc(F)c1OC(F)F)N1CCC2(CC1)CN(CC(F)(F)F)CC(c1ccccc1)O2 (stereo not shown) [Compound 299] | < 5.30
40 | COCC1CN(C2CCCC2)CC2(CCN(C(=O)c3ccc(OC(C)C)c(C)c3)CC2)O1 (stereo not shown) [Compound 302] | > 5.70
41 | Cc1cnc(C2CN(Cc3ccccc3)CC3(CCN(C(=O)c4ccc(OC(C)C)c(C)c4)CC3)O2)o1 (stereo not shown) [Compound 83] | > 5.70
42 | Cc1cc(C(=O)N2CCC3(CC2)CN(CC#N)CC(c2ccccc2)O3)ccc1OC(C)C (stereo not shown) [Compound 283] | > 5.70
43 | COCC1CN(c2ccc(C#N)cc2)CC2(CCN(C(=O)c3ccc(OC(C)C)c(C)c3)CC2)O1 (stereo not shown) [Compound 70] | > 5.70
44 | COCC1CN(c2ncccn2)CC2(CCN(C(=O)c3ccc(OC(C)C)c(C)n3)CC2)O1 (stereo not shown) [Compound 282] | > 5.70
45 | COCCN1CC(COC)OC2(CCN(C(=O)c3ccc(OC(C)C)c(C)c3)CC2)C1 (stereo not shown) [Compound 188] | 5.30 to 5.70
46 | CCN1CC2(CCN(C(=O)c3ccc(OC(C)C)c(C)c3)CC2)OCC1c1ccccc1 (stereo not shown) [Compound 10] | > 5.70
47 | CCC1CN(c2ccccn2)CC2(CCN(C(=O)c3ccc(C4(O)CCC4)c(C)c3)CC2)O1 (stereo not shown) [Compound 176] | > 5.70
48 | COCC1CN(C2CCC[C@@H](C)C2)CC2(CCN(C(=O)c3ccc(OC(C)C)c(C)c3)CC2)O1 (stereo partly shown) [Compound 232] | > 5.70
49 | COCC1CN(CC(C)C)CC2(CCN(C(=O)c3ccc(OC(C)C)c(C)c3)CC2)O1 (stereo not shown) [Compound 111] | > 5.70
50 | COCC1CN(Cc2nccs2)CC2(CCN(C(=O)c3ccc(OC(C)C)c(C)c3)CC2)O1 (stereo not shown) [Compound 252] | 5.30 to 5.70
51 | COCC1CN(CC(=O)C2CC2)CC2(CCN(C(=O)c3ccc(OC(C)C)c(C)c3)CC2)O1 (stereo not shown) [Compound 249] | 5.30 to 5.70
52 | CCC1CN(C(C)(C)C)CC2(CCN(C(=O)c3ccc(OC(C)C)c(C)c3)CC2)O1 (stereo not shown) [Compound 18] | > 5.70
53 | CCOCC1CN(CC)CC2(CCN(C(=O)c3ccc(OC(C)C)c(C)c3)CC2)O1 (stereo not shown) [Compound 272] | < 5.30
54 | Cc1cc(C(=O)N2CCC3(CC2)CN(CC(F)F)CC(c2ccc(F)cc2)O3)ccc1OCC(C)(C)O (stereo not shown) [Compound 170] | > 5.70
55 | Cc1nc(C(=O)N2CCC3(CC2)CN(CC(F)F)CC(c2ccccc2)O3)ccc1C#N (stereo not shown) [Compound 157] | < 5.30
